This is an account of results in patent US8175860B2, “Method of inhibiting the growth of Helicobacter pylori” (priority 2009, dated 2012).

“And” between values parts separate entries of the source, which are not always exact repeats. Equal values may be shown once. Read-outs that look alike come from different tables or passages of the source.

Test [1] concerns the target HpSK (H. pylori shikimate kinase) (Helicobacter pylori, UniProt P56073). Nature of the test: Shikimate kinase inhibitor activity assay (pyruvate kinase/lactate dehydrogenase coupled), HpSK. Particulars: for inhibition mode with respect to shikimate (SKM): ATP fixed at 2.5 mM, shikimate varied; for inhibition mode with respect to ATP: shikimate fixed at 1.6 mM, ATP varied; for inhibitory effect against shikimate kinase (in words): preliminary screening at 50 μM. Type of test: biochemical. Here is the method: The shikimate kinase activity was determined by coupling the release of ADP from the shikimate kinase-catalyzed reaction to the oxidation of NADH using pyruvate kinase (EC 2.7.1.40) and lactate dehydrogenase (EC 1.1.1.27) as coupling enzymes. Shikimate-dependent oxidation of NADH was monitored by the decrease in A340 (ε=6,200 M^−1 cm^−1). The assay was carried out at 25° C. in a mixture containing 100 mM Tris/HCl/KOH buffer, pH 7.5, 50 mM KCl, 5 mM MgCl2, 1.6 mM shikimic acid, 2.5 mM ATP, 1 mM phosphoenolpyruvate, 0.1 mM NADH, 2.5 units of pyruvate kinase/ml, and 2.7 units of lactate dehydrogenase/ml. All assays were conducted in a 96-well microplate spectrophotometer (FLUOstar OPTIMA, BMG LABTECH). Kinetic parameters were obtained using nonlinear regression fitting to the Michaelis-Menten equation. The apparent Km values for each substrate were determined as follows: for ATP the shikimate concentration ([shikimate]) was maintained at 1.6 mM and the [ATP] varied in the range from 0.001 mM to 2.5 mM; for shikimate the [ATP] was maintained at 2.5 mM and the [shikimate] varied in the range from 0.005 to 1.6 mM. The kinetic data were fit to the appropriate equations using the program GraphPad Prism 4 (Software Inc., USA). The kinetic data for determining the Km values were fit to
using the program GraphPad Prism 4 where v was the initial velocity, Vmax was the maximum velocity, Km was the Michaelis constant and [S] was the substrate (shikimate or ATP) concentration. The IC50 value for HpSK inhibition by inhibitors was determined by fitting data to
where v was the initial velocity, Vmax was the maximum velocity, Vmin was the minimum velocity, [I] was the concentration of compounds and n was the Hill slope.
Using GEMDOCK virtual docking and pharmarcophore model, several compounds were selected to assay inhibitor activity for verifying the inhibiting effect on HpSK and MtSK enzyme. Based on the procedure of enzyme activity assay, the initial velocities of the enzyme activity were determined in the presence of compounds (50 μM) dissolved in dimethylsulfoxide (DMSO). The final DMSO concentration in all assay mixtures was 5% (v/v). The assay buffer contained 100 mM Tris/HCl/KOH (pH 7.5), 1.6 mM shikimic acid, 2.5 mM ATP. The reaction was initiated by the addition of the diluted HpSK and MtSK enzyme (85 nM). After the preliminary screening, several compounds were identified to inhibit HpSK and MtSK enzyme activity. The initial velocities of the enzyme activity were determined in the presence of various concentrations of these compounds to investigate the dose-dependent inhibition effects. IC50 values of these compounds were obtained by fitting the data to a sigmoid dose-response equation of the GraphPad Prism 4. Afterwards, inhibitor modality was determined by measuring the effects of inhibitor concentrations on the enzymatic activity as a function of substrate concentration. In the inhibition experiment where the ATP concentration was fixed at 2.5 mM, shikimate was a varied substrate (0.06, 0.12, 0.24, 0.48, and 0.96 mM) when the concentration of inhibitor was varied from 0 to 50 μM. In parallel, in the inhibition experiment where the shikimate concentration was fixed at 1.6 mM, ATP was a varied substrate (0.06, 0.12, 0.24, 0.48, and 0.96 mM) when the concentration of inhibitor was varied from 0 to 50 μM.

The target of test [2] is MtSK (M. tuberculosis shikimate kinase) (Mycobacterium tuberculosis, UniProt P9WPY3). The experiment in a line: Shikimate kinase inhibitor activity assay (pyruvate kinase/lactate dehydrogenase coupled), MtSK. The test is classed as biochemical. Particulars: for inhibition mode with respect to shikimate (SKM): ATP fixed at 2.5 mM, shikimate varied; for inhibition mode with respect to ATP: shikimate fixed at 1.6 mM, ATP varied; for inhibitory effect against shikimate kinase (in words): preliminary screening at 50 μM.

The mark [3] stands for this setting: with respect to ATP, read-out: αKi, ATP.
[4] abbreviates: with respect to shikimate, read-out: αKi, SKM.
[5] abbreviates: MtSK, with respect to ATP, read-out: αKi, ATP.
The mark [6] stands for this setting: MtSK, with respect to shikimate, read-out: αKi, SKM.

Sequence of HpSK (H. pylori shikimate kinase) (P56073 whole entry): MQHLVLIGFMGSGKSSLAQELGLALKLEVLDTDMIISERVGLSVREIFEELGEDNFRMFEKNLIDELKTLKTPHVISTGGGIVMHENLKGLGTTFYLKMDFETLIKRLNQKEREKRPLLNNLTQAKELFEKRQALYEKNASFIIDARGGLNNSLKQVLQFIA
Sequence of MtSK (M. tuberculosis shikimate kinase) (P9WPY3 whole entry): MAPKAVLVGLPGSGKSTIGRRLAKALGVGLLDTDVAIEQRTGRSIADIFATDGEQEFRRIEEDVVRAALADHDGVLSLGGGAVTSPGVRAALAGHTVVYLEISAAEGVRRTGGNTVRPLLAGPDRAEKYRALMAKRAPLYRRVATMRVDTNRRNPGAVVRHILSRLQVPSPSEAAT

In the case of “5-((E)-(4-((E)-(2-benzyl-8-hydroxy-6-sulfonatonaphthalen-1-yl)diazenyl)phenyl)diazenyl)-2-hydroxybenzoate [Compound 7]”, the IC50 (commonly the concentration needed to halve the response being measured) in test [1] was found to be 6100 nM; in test [2] (MtSK), 2770 nM. Besides, the “inhibition mode with respect to shikimate (SKM)” value (“inhibition mode … (SKM)” below) in test [1] and in test [2] (MtSK) was “Competitive” in each case. Further, the “inhibition mode with respect to ATP” value in test [1] and in test [2] (MtSK) was “Competitive” throughout. Besides, the Ki in test [1] (setting [3]) turned out to be 1970 nM; in test [1] (setting [4]), 2420 nM; in test [2] (setting [5]), 730 nM; in test [2] (setting [6]), 1040 nM.

For “5-((E)-(4-((E)-(4-((E)-(2,4-diamino-5-methylphenyl)diazenyl)-3-methyl-2-sulfonatophenyl)diazenyl)phenyl)diazenyl)-2-hydroxybenzoate [Compound 6]”, the IC50 was 4780 nM in test [1] and 1500 nM in test [2] (MtSK). Further, the “inhibition mode … (SKM)” value in test [1] and in test [2] (MtSK) was “Competitive” throughout. Further, the “inhibition mode with respect to ATP” value in test [1] and in test [2] (MtSK) was “Competitive” throughout. For the same molecule, the Ki in test [1] (setting [3]) is 1050 nM; in test [1] (setting [4]), 1730 nM; in test [2] (setting [5]), 320 nM; in test [2] (setting [6]), 660 nM.

Take `O=C1c2cccc3cc([N+](=O)[O-])cc(c23)C(=O)N1c1ccc(S(=O)(=O)Nc2ccc(C(F)(F)F)cc2)cc1` [Compound 1, 4-(5-nitro-1,3-dioxo-1H-benzo[de]isoquinolin-2(3H)-yl)-N-(4-(trifluoromethyl)phenyl)benzenesulfonamide]: the IC50 in test [1] was 79300 nM; in test [2] (MtSK) it was > 50000 nM.

As for `O=C(NNC(=O)C1c2ccccc2Oc2ccccc21)c1cccc(F)c1` [Compound 3, N′-(3-fluorobenzoyl)-9H-xanthene-9-carbohydrazide], the half-maximal inhibitory concentration (IC50) in test [1] is 40200 nM; in test [2] (MtSK), > 50000 nM.

On to `N=C(NO)c1ccc(Oc2cc(Cl)cc(Cl)c2)c([N+](=O)[O-])c1` [Compound 4, (Z)-4-(3,5-dichlorophenoxy)-N′-hydroxy-3-nitrobenzimidamide], for which the values for the half-maximal inhibitory concentration (IC50) in test [1] and in test [2] (MtSK) were 89800 nM and > 50000 nM, respectively.

As for `O=C(Nc1ccc2c(O)cc(S(=O)(=O)O)cc2c1)Nc1ccc2c(O)cc(S(=O)(=O)O)cc2c1` [Compound 5, 7,7′-carbonylbis(azanediyl)bis(4-hydroxynaphthalene-2-sulfonate)], the IC50 in test [1] was ≤ 10000 nM and 7770 nM; in test [2] (MtSK), 2760 nM. In addition, the “inhibition mode … (SKM)” value in test [1] is given as “Noncompetitive”; in test [1] (listed as NSC45174), “noncompetitive”; in test [2] (MtSK), “Noncompetitive”; in test [2] (MtSK, listed as NSC45174) it was “noncompetitive”. The “inhibition mode with respect to ATP” value in test [1] and in test [2] (MtSK) was “Competitive” throughout. In addition, the Ki in test [1] (setting [3]) was determined as 1740 nM; in test [1] (setting [4]), 12800 nM; in test [2] (setting [5]), 350 nM; in test [2] (setting [6]), 2670 nM.

For the molecule `Cc1cc(/N=N/c2ccc(/N=N/c3ccc(/N=N/c4ccc(O)c(C(=O)O)c4)cc3)c(S(=O)(=O)O)c2C)c(N)cc1N` [Compound 6, 5-((E)-(4-((E)-(4-((E)-(2,4-diamino-5-methylphenyl)diazenyl)-3-methyl-2-sulfonatophenyl)diazenyl)phenyl)diazenyl)-2-hydroxybenzoate], the IC50 in test [1] and in test [2] (MtSK) was ≤ 10000 nM throughout.

`O=C(O)c1cc(/N=N/c2ccc(/N=N/c3c(Cc4ccccc4)ccc4cc(S(=O)(=O)O)cc(O)c34)cc2)ccc1O` [Compound 7, 5-((E)-(4-((E)-(2-benzyl-8-hydroxy-6-sulfonatonaphthalen-1-yl)diazenyl)phenyl)diazenyl)-2-hydroxybenzoate]: the half-inhibitory concentration (IC50) in test [1] and in test [2] (MtSK) was ≤ 10000 nM throughout.

As for `Nc1ccc2c(O)c(/N=N/c3ccc4c(O)cc(S(=O)(=O)O)cc4c3)c(S(=O)(=O)O)cc2c1` [Compound 8, (E)-7-amino-4-hydroxy-3-((5-hydroxy-7-sulfonatonaphthalen-2-yl)diazenyl)naphthalene-2-sulfonate], the IC50 amounted to 4910 nM in test [1] and 1550 nM in test [2] (MtSK). Further, the “inhibition mode … (SKM)” value in test [1] is on record as “Competitive”; in test [1] (listed as NSC136535), “competitive”; in test [2] (MtSK), “Competitive”; in test [2] (MtSK, listed as NSC136535), “competitive”. The “inhibition mode with respect to ATP” value in test [1] and in test [2] (MtSK) was “Competitive” in each case. For the same molecule, the Ki was 1850 nM in test [1] (setting [3]), 1820 nM in test [1] (setting [4]), 240 nM in test [2] (setting [5]) and 610 nM in test [2] (setting [6]).

In turn, `N#C/C(=C/c1ccc(O)c(O)c1)C(=O)c1ccc(O)c(O)c1` [Compound 9, (Z)-2-(3,4-dihydroxybenzoyl)-3-(3,4-dihydroxyphenyl)acrylonitrile, reference compound] yielded a concentration for half-maximal inhibition (IC50) in test [1] of 2300 nM. In addition, the “inhibition mode … (SKM)” value in test [1] is on record as “Noncompetitive”; in test [1] (listed as AG538), “noncompetitive”; in test [2] (MtSK), “Noncompetitive”; in test [2] (MtSK, listed as AG538), “noncompetitive”. The “inhibitory effect against shikimate kinase (in words)” value in test [1] and in test [2] (MtSK) was “showed inhibitory results” throughout. For the same molecule, the “inhibition mode with respect to ATP” value in test [1] and in test [2] (MtSK) was “Competitive” each time. The values for the Ki in test [1] (setting [3]) and in test [1] (setting [4]) were 3080 nM and 5350 nM, respectively.

In the case of `O=C1Nc2ccc(I)cc2/C1=C/c1cc(Br)c(O)c(Br)c1` [Compound 10, (Z)-3-(3,5-dibromo-4-hydroxybenzylidene)-5-iodoindolin-2-one, reference compound], the IC50 in test [1] came out at 31400 nM; in test [2] it was 29600 nM. In addition, the “inhibitory effect against shikimate kinase (in words)” value in test [1] and in test [2] (MtSK) was “showed inhibitory results” throughout.
